# Experimental data taken from ChEMBL document CHEMBL1151131, “Bioactivity of the essential oil of Bupleurum fruticosum” (1989).
# The source made the active and inactive calls. No cut-off for these calls is given here.
# Tests used:
# [1] = system: Rattus norvegicus; experiment: Antiinflammatory activity against carrageenan-induced plantar edema in Wistar rat hind paw at 20 mg/kg, ip administered 1 hr before carrageenan challenge measured after 3 hrs; format: functional; settings: route intraperitoneal
# [2] = system: Rattus norvegicus; experiment: Antiinflammatory activity against carrageenan-induced plantar edema in Wistar rat hind paw at 80 mg/kg, ip administered 1 hr before carrageenan challenge measured after 5 hrs; format: functional; settings: route intraperitoneal
# [3] = system: Rattus norvegicus; experiment: Antiinflammatory activity against carrageenan-induced plantar edema in Wistar rat hind paw at 40 mg/kg, ip administered 1 hr before carrageenan challenge measured after 3 hrs; format: functional; settings: route intraperitoneal
# [4] = system: Rattus norvegicus; experiment: Antiinflammatory activity against carrageenan-induced plantar edema in Wistar rat hind paw at 40 mg/kg, ip administered 1 hr before carrageenan challenge measured after 5 hrs; format: functional; settings: route intraperitoneal
# [5] = system: Rattus norvegicus; experiment: Antiinflammatory activity against carrageenan-induced plantar edema in Wistar rat hind paw at 80 mg/kg, ip administered 1 hr before carrageenan challenge measured after 1 hrs; format: functional; settings: route intraperitoneal
# [6] = system: Rattus norvegicus; experiment: Antiinflammatory activity against carrageenan-induced plantar edema in Wistar rat hind paw at 80 mg/kg, ip administered 1 hr before carrageenan challenge measured after 3 hrs; format: functional; settings: route intraperitoneal
# [7] = system: Rattus norvegicus; experiment: Antiinflammatory activity against carrageenan-induced plantar edema in Wistar rat hind paw at 20 mg/kg, ip administered 1 hr before carrageenan challenge measured after 5 hrs; format: functional; settings: route intraperitoneal
# [8] = system: Rattus norvegicus; experiment: Antiinflammatory activity against carrageenan-induced plantar edema in Wistar rat hind paw at 40 mg/kg, ip administered 1 hr before carrageenan challenge measured after 1 hrs; format: functional; settings: route intraperitoneal
# [9] = system: Rattus norvegicus; experiment: Antiinflammatory activity against carrageenan-induced plantar edema in Wistar rat hind paw at 20 mg/kg, ip administered 1 hr before carrageenan challenge measured after 1 hrs; format: functional; settings: route intraperitoneal
# [10] = system: Uterus; experiment: Antispasmodic activity against oxytocin-induced contraction in Wistar rat uterus at 2.2 ug/ml; format: functional, tissue-based
# [11] = system: Uterus; experiment: Antispasmodic activity against oxytocin-induced contraction in Wistar rat uterus at 1.1 ug/ml; format: functional, tissue-based
# [12] = system: Rattus norvegicus; experiment: Antiinflammatory activity against carrageenan-induced plantar edema in Wistar rat hind paw at 33 mg/kg, ip administered 1 hr before carrageenan challenge measured after 3 hrs; format: functional; settings: route intraperitoneal
# [13] = system: Rattus norvegicus; experiment: Antiinflammatory activity against carrageenan-induced plantar edema in Wistar rat hind paw at 66 mg/kg, ip administered 1 hr before carrageenan challenge measured after 3 hrs; format: functional; settings: route intraperitoneal
SMILES,Activity [1],Activity [2],Activity [3],Activity [4],Activity [5],Activity [6],Activity [7],Activity [8],Activity [9],Activity [10],Activity [11],Activity [12],Activity [13]
CC1=CCC2CC1C2(C)C (stereo not drawn) [ALPHA-PINENE],8.9%,13.2%,21%,14%,19%,26.2%,-1.6%,20.4%,5.6%,–,–,–,–
C=C1CCC2CC1C2(C)C (stereo not drawn) [BETA-PINENE],15.1%,31.9%,19.2%,14.9%,8.7%,32.2%,16.7%,27.5%,20.5%,–,–,–,–
CC1=CCC2C(C1)C2(C)C (configuration not stated) [CARENE],–,–,–,–,–,–,–,–,–,Active,Active,50.3%,77%
